The values that follow come from patent US20160264570A1, “METHOD OF BLOCKING TRANSMISSION OF MALARIAL PARASITE” (THE UNITED STATES OF AMERICA, AS REPRESENTED BY THE …, priority 2013, published 2016).

Like-named read-outs stand apart in the source and are kept apart here.

Test [1] relates to Asexual parasites of P. falciparum strain 3D7. Kind of test: SYBR Green viability assay on asexual parasites. Type of test: cell-based, Plasmodium falciparum. As to conditions: read-out: Activity against asexual parasites EC50.
The test system of test [2] is P. falciparum strain 3D7 gametocytes. Kind of test: alamarBlue gametocyte viability assay, strain 3D7. (Resazurin is reduced to fluorescent resorufin, in cell work by metabolically active cells.)
In another test the test system is HepG2 cells. Kind of test: Cytotoxicity in mammalian HepG2 cell line. The settings on record: for % Max response: HepG2.
The mark [3] stands for this setting: read-out: Gametocytocidal activity EC50, Table 6.
Setting [4] is: Plasmodium falciparum, 3D7, Table 8.
Setting [5] is: Plasmodium falciparum, 3D7, read-out: Gametocytocidal activity EC50, Table 8.
[6] abbreviates: Plasmodium falciparum, 3D7, Table 7.
Where [7] appears, read: Plasmodium falciparum, 3D7, read-out: Gametocytocidal activity EC50, Table 7.
The mark [8] stands for this setting: Table 4, Inactive = no significant activity at highest tested concentration (46 μM).
Where [9] appears, read: Plasmodium falciparum, 3D7, read-out: 3D7-IC50.
The mark [10] stands for this setting: Homo sapiens, HepG2, read-out: IC50 (μM) in HepG2 cells.
Where [11] appears, read: Plasmodium falciparum, 3D7, read-out: IC50 against gametocytes.

The EC50 is the concentration needed to bring the measured effect to its halfway point. `CCn1c(=O)ccc2cnc3ccc(-c4ccc(N)nc4)cc3c21`: the EC50 in test [1] (Table 6) was determined as 1270 nM; in test [2] (setting [3]), 1650 nM.
Taken in the same sequence, the figures for `CN(C)C(=O)c1cccc(-n2c(=O)ccc3cnc4ccc(-c5ccc(N)nc5)cc4c32)c1` were 859 nM and 1520 nM.
Turning to `Nc1ccc(-c2ccc3ncc4ccc(=O)n(-c5cccc(C(F)(F)F)c5)c4c3c2)cc1`, the values for the EC50 in test [1] (Table 6) and in test [2] (setting [3]) were 99 nM and 147 nM, respectively.
The matching figures for `O=C1CCc2cc(-c3ccc4ncc5ccc(=O)n(-c6cccc(C(F)(F)F)c6)c5c4c3)ccc2N1`: 1130 nM and 3170 nM.
Consider `CCc1cc2cnc3ccc(-c4ccc(N)nc4)cc3c2n(-c2cccc(C(F)(F)F)c2)c1=O`, for which the EC50 in test [1] (setting [4]) was found to be 260 nM; in test [2] (setting [5]), 136 nM.
Consider `Nc1cccc(-c2ccc3ncc4ccc(=O)n(-c5cccc(C(F)(F)F)c5)c4c3c2)c1`, for which the EC50 worked out at 120 nM in test [1] (Table 6) and 103 nM in test [2] (setting [3]).
With `Nc1ncc(-c2ccc3ncc4ccc(=O)n(-c5cccc(C(F)(F)F)c5)c4c3c2)cn1`, the EC50 was determined as 22 nM in test [1] (Table 6) and 40 nM in test [2] (setting [3]).
Turning to `O=C1Cc2cc(-c3ccc4ncc5ccc(=O)n(-c6cccc(C(F)(F)F)c6)c5c4c3)ccc2N1`, the figures for the EC50 in test [1] (Table 6) and in test [2] (setting [3]) were 19 nM and 51 nM, respectively.
Regarding `Nc1ccc(-c2ccc3ncc4ccc(=O)n(-c5ccc(N6CCNCC6)c(C(F)(F)F)c5)c4c3c2)cn1`, the EC50 in test [1] (Table 6) is 9 nM; in test [2] (setting [3]), 10 nM.
Taken in the same sequence, the figures for `O=c1ccc2cnc3ccc(N4CCNCC4)cc3c2n1-c1cccc(C(F)(F)F)c1` were > 20000 nM and 22000 nM.
On to `Nc1ccc(-c2ccc3ncc4ccc(=O)n(C5CCCC5)c4c3c2)cn1`, for which the EC50 in test [1] (Table 6) amounted to 882 nM; in test [2] (setting [3]) it was 1260 nM.
Taken in the same sequence, the figures for `CC(=O)Nc1ccc(-c2ccc3ncc4ccc(=O)n(-c5cccc(C(F)(F)F)c5)c4c3c2)cn1` were 106 nM and 114 nM.
With `O=c1ccc2cnc3ccc(-c4ccc(O)cc4)cc3c2n1-c1cccc(C(F)(F)F)c1`, the EC50 was found to be 129 nM in test [1] (Table 6) and 165 nM in test [2] (setting [3]).
For the compound `O=c1ccc2cnc3ccc(-c4ccccc4)cc3c2n1-c1cccc(C(F)(F)F)c1`, the EC50 in test [1] (Table 6) was found to be 113 nM; in test [2] (setting [3]), 627 nM.
For the compound `Cn1c(=O)n(-c2cccc(C(F)(F)F)c2)c2c3cc(-c4ccc(C(N)=O)cc4)ccc3ncc21`, the half-maximal effective concentration (EC50) in test [1] (setting [6]) came to 20 nM; in test [2] (setting [7]) it was 109 nM.
As for `O=c1ccc2cnc3ccc(-c4cncnc4)cc3c2n1-c1cccc(C(F)(F)F)c1`, the EC50 in test [1] (Table 6) was determined as 475 nM; in test [2] (setting [3]), 942 nM.
Take `Nc1ccc(-c2ccc3ncc4ccc(=O)n(-c5cccc(Cl)c5)c4c3c2)cn1`: the EC50 was determined as 10 nM in test [1] (Table 6) and 18 nM in test [2] (setting [3]).
The matching figures for `Cc1cccc(-n2c(=O)ccc3cnc4ccc(-c5ccc(N)nc5)cc4c32)c1`: 23 nM and 19 nM.
The matching figures for `N#Cc1cccc(-n2c(=O)ccc3cnc4ccc(-c5ccc(N)nc5)cc4c32)c1`: 12 nM and 23 nM.
Taken in the same sequence, the figures for `O=C(c1ccc(-c2ccc3ncc4ccc(=O)n(-c5cccc(C(F)(F)F)c5)c4c3c2)cc1)N1CCOCC1` were 12000 nM and 22400 nM.
Turning to `CS(=O)(=O)c1ccc(-c2ccc3ncc4[nH]c(=O)n(-c5cccc(C(F)(F)F)c5)c4c3c2)cc1`, the EC50 in test [1] (setting [6]) worked out at 622 nM; in test [2] (setting [7]) it was 2050 nM.
For `O=c1ccc2cnc3ccc(-c4ccc5c(c4)OCO5)cc3c2n1-c1cccc(C(F)(F)F)c1`, the 50% effective concentration (EC50) in test [1] (Table 6) was 802 nM; in test [2] (setting [3]), 3130 nM.
On to `O=c1ccc2cnc3ccc(-c4ccc(N5CCCCC5)nc4)cc3c2n1-c1cccc(C(F)(F)F)c1`, for which the results for the EC50 in test [1] (Table 6) and in test [2] (setting [3]) were 4900 nM and 8090 nM, respectively.
The matching figures for `O=c1ccc2cnc3ccc(-c4ccc(-c5nnn[nH]5)cc4)cc3c2n1-c1cccc(C(F)(F)F)c1`: > 20000 nM and 20900 nM.
With `Nc1ccc(-c2ccc3ncc4[nH]c(=O)n(-c5cccc(C(F)(F)F)c5)c4c3c2)cn1`, the EC50 is 105 nM in test [1] (setting [6]) and 88 nM in test [2] (setting [7]).
As to `Nc1ccc(-c2ccc3ncc4ccc(=O)n(C5CCCCC5)c4c3c2)cn1`, the EC50 was determined as 707 nM in test [1] (Table 6) and 676 nM in test [2] (setting [3]).
The matching figures for `CN(C)Cc1ccc2ncc3ccc(=O)n(-c4cccc(C(F)(F)F)c4)c3c2c1`: 242 nM and 666 nM.
Taken in the same sequence, the figures for `Nc1ccc(-c2ccc3ncc4ccc(=O)n(C5CC5)c4c3c2)cn1` were 560 nM and 215 nM.
`O=c1ccc2cnc3ccc(-c4cccc(N5CCCC5)c4)cc3c2n1-c1cccc(C(F)(F)F)c1`: the concentration giving a half-maximal response (EC50) in test [1] (Table 6) amounted to 13300 nM; in test [2] (setting [3]) it was 16100 nM.
On to `Nc1ncc(-c2ccc3ncc4[nH]c(=O)n(-c5cccc(C(F)(F)F)c5)c4c3c2)cn1`, for which the EC50 was 57 nM in test [1] (setting [6]) and 246 nM in test [2] (setting [7]).
As to `Cc1cc2cnc3ccc(-c4ccc(N)nc4)cc3c2n(-c2cccc(C(F)(F)F)c2)c1=O`, the concentration for a half-maximal effect (EC50) in test [1] (setting [4]) is 205 nM; in test [2] (setting [5]), 46 nM.
With `O=c1[nH]c2cnc3ccc(-c4cnc5ccccc5c4)cc3c2n1-c1cccc(C(F)(F)F)c1`, the EC50 came out at 5780 nM in test [1] (setting [6]) and 212000 nM in test [2] (setting [7]).
For orientation: IC50 means the concentration that gives 50% inhibition. Consider `C[C@H]1[C@@H](O)O[C@@H]2O[C@@]3(C)CC[C@H]4[C@H](C)CC[C@@H]1[C@@]24OO3` [Artenimol (DHA)], for which the “% Max response” value in the test with HepG2 cells (Table 2) and with HepG2 cells (Table 4) was 20% throughout. For the same compound, in the test on HepG2 cells (Table 2, Inactive = no significant activity at highest tested concentration (46 μM)), the “IC50 (μM) in HepG2” value was “Inactive”. Also, the “IC50 (μM) in HepG2 cells” value in the test on HepG2 cells (setting [8]) is “Inactive”. The IC50 in test [2] (read-out: Gametocyte IC50, mean of at least 3 independent experiments, P. falciparum 3D7 gametocyte) was 77 nM.
For the compound `COc1cccc2c1C(=O)c1c(O)c3c(c(O)c1C2=O)C[C@@](O)(C(=O)CO)C[C@@H]3O[C@H]1C[C@H](N)[C@H](O)[C@H](C)O1` [Adriamycin], in the test with HepG2 cells (Table 4), the “% Max response” value is −35%. Further, the “IC50 (μM) in HepG2 cells” value in the test on HepG2 cells (setting [8]) is listed as “Inactive”. Also, in test [2] (setting [9]), the IC50 is 526 nM.
Turning to `CN(C)C/C=C/C(=O)Nc1cc2c(Nc3ccc(F)c(Cl)c3)ncnc2cc1O[C@H]1CCOC1` [Afatinib], the IC50 in the test on HepG2 cells (setting [10]) amounted to 18.7 µM; in test [2] (setting [9]), 935 nM. Besides, in the test with HepG2 cells (Table 4), the “% Max response” value is −100%.
Regarding `CC[C@@H](C(=O)O)[C@@H]1O[C@@H]([C@@H](C)[C@H](O)[C@H](C)C(=O)[C@H](CC)[C@H]2O[C@]3(C=C[C@@H](O)[C@]4(CC[C@@](C)([C@H]5CC[C@](O)(CC)[C@H](C)O5)O4)O3)[C@H](C)C[C@@H]2C)[C@@H](C)C[C@@H]1C` [Narasin], the IC50 in the test with HepG2 cells (setting [10]) was 27 µM; in test [2] (setting [11]), 3 to 50 nM. Moreover, the “% Max response” value in the test on HepG2 cells (Table 4) is given as −98%.
In the case of `CO[C@@H]1[C@@H](OC)[C@H](C)[C@@](O)(CC(=O)O)O[C@H]1[C@H](C)[C@H]1O[C@@]2(CC[C@@](C)([C@H]3CC[C@@](C)([C@@H]4O[C@@H]([C@H]5O[C@](C)(O)[C@H](C)C[C@@H]5C)C[C@@H]4O[C@@H]4C[C@H](OC)[C@@H](OC)[C@H](C)O4)O3)O2)C[C@H](O)[C@H]1C` [Maduramicin], in the test with HepG2 cells (Homo sapiens, HepG2, read-out: % Max response), the Emax is -42%. In addition, the IC50 in the test on HepG2 cells (Homo sapiens, HepG2, read-out: IC50 (μM) in HepG2) is 37.2 µM; with HepG2 cells (setting [10]) it was 37.2 µM; in test [2] (Plasmodium falciparum, 3D7, read-out: Gametocyte IC50), 47 nM; in test [2] (setting [11]) it was 3 to 50 nM.
Take `CC(C)C[C@H](NC(=O)[C@H](Cc1ccccc1)NC(=O)c1cnccn1)B(O)O` [Bortezomib]: the IC50 in the test on HepG2 cells (setting [10]) was 0.148 µM; in test [2] (setting [9]), 100 nM. Further, the “% Max response” value in the test with HepG2 cells (Table 4) is −82%.
Regarding `COCCn1c2c([n+](Cc3cnccn3)c1C)C(=O)c1ccccc1C2=O` [YM155], the IC50 with HepG2 cells (setting [10]) was determined as 4.69 µM; in test [2] (setting [9]), 372 nM. The “% Max response” value in the test with HepG2 cells (Table 4) is given as −92%.
